Here are results for four compounds from ChEMBL document CHEMBL1123130 (J Med Chem, 1985).

The structures appear in SMILES notation.

The assay concerns the target T1, Progesterone receptor (Oryctolagus cuniculus, UniProt P06186).
T1 sequence (P06186 whole entry): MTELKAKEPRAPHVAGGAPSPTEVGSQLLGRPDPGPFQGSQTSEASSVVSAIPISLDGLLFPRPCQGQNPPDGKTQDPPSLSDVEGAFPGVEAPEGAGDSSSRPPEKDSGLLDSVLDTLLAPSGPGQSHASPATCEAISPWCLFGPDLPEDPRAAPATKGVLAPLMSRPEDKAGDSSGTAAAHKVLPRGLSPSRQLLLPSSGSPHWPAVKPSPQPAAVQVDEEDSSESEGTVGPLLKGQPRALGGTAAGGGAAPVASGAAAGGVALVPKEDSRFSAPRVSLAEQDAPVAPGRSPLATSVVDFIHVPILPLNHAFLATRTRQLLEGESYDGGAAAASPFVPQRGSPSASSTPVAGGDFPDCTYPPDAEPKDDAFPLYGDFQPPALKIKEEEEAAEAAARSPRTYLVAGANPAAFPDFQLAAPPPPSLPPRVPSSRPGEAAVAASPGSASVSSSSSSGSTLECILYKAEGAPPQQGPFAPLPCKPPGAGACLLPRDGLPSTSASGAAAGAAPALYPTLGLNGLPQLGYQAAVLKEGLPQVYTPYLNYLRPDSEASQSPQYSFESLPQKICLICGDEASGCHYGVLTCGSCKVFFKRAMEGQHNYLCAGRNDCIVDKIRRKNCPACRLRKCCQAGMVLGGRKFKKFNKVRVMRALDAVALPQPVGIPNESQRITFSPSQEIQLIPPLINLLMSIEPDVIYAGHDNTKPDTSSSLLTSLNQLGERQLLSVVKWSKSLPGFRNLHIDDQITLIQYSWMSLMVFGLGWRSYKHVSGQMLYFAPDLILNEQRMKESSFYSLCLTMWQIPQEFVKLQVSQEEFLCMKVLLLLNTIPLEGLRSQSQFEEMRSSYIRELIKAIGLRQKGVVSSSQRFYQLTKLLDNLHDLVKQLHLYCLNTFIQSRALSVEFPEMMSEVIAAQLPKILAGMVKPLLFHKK
Kind of assay: Inhibition of [3H]R5020 binding to rabbit uterine progesterone receptor.
Compound `CC12CCC3C4CCC(=O)C=C4CCC3C1CCC2(O)/C=C\I` (centres undefined) returned a Ki of 0.00426 µM.

Take `CC12CCC3C4CCC(=O)C=C4CCC3C1C[C@@H](I)C2O` (some centres undefined): the Ki stood at 0.0398 µM. `CC12CCC3C4CCC(=O)C=C4CCC3C1CCC2(O)/C=C/I` (centres undefined) had a Ki of 0.00181 µM. The result for `C=C(I)C1(O)CCC2C3CCC4=CC(=O)CCC4C3CCC21C` (centres undefined) reads 0.0801 µM.

As usually defined, the Ki is the dissociation constant of the complex between target and ligand, obtained from inhibition or displacement. Read a low Ki as a stronger hold on the target.
